Article PMC10460844, “Real‐Time Monitoring of Multitarget Antimicrobial Mechanisms of Peptoids Using Label‐Free Imaging with Optical Diffraction Tomography” (Advanced Science, 2023)
≈ marks a conversion by molar mass, not a printed value. Read-outs that look alike come from different tables or passages of the source.

What was measured:
[1] = Analytical reversed-phase HPLC elution (hydrophobicity); type: physicochemical; conditions: analytical RP-HPLC, 1 mL/min, UV 220 nm; for HPLC elution (%ACN): Table 1, SunFire C18 […] 250 mm, water/ACN + 0.1% TFA, 5% B 2 min then linear to 100% B over 30 min, used as measure of hydrophobicity; for HPLC elution: Table S1, SunFire C18, water/ACN + 0.1% TFA, 5 to 100% B linear over 30 min, approximate comparison of hydrophobicity
Outline: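 Retention time (tR) reflects hydrophobicity, with detection at 220 nm. Elution used a 5–100% acetonitrile linear gradient over 30 min after a 2 min hold at 5%, then 5 min at 100%, with both phases containing 0.1% TFA. Column was an analytical C18 (4.6 × 250 mm, 5 μm) run at 1 mL/min.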

rat erythrocytes = assay: Hemolysis assay; type: cell-based; conditions: for H max (100 µM): percentage of hemolysis at the highest concentration tested (100 µM), rat erythrocytes
Outline: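 Washed Sprague-Dawley rat erythrocytes (10% suspension in PBS pH 7.4) mixed with peptoids (0–100 µM), 60 min at 37 °C; supernatant A540 expressed as % of 1% Triton X-100 lysis. HC10/HC50 are concentrations giving 10%/50% hemolysis; Hmax is hemolysis at 100 µM.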

E. coli ATCC 25922 [2] = type: cell-based; conditions: ODT, 30 min treatment; buforin-II 25 µM, melittin 25 µM, 29 4 × MIC
Experimental: Three‐dimensional (3D) optical diffraction tomography (ODT) and fluorescence images of live bacterial cells were obtained using an HT‐2H Mach−Zehnder interferometric microscope, combining both ODT and fluorescence imaging into a single unit (Tomocube, Daejon, South Korea). 3D Fluorescence imaging was carried out, using three light sources (385, 470, and 565 nm) via serial fluorescence image acquisition in multiple planes followed by 3D deconvolution. 3D correlative imaging, using a combination of ODT and fluorescence imaging was performed using commercial software (TomoStudioTM, Tomocube) as described previously^[ [23c] ^] Bacterial cells were grown overnight and diluted (≈10^7 CFU mL^−1) in cation‐adjusted MHB2 media. The cells were loaded onto 50 mm imaging dishes with a #1.5H glass coverslip bottom (TomoDish, Tomocube) that were precoated with 0.01% (w/v) poly‐L‐lysine (Sigma‐Aldrich) in water. After 30 min incubation at room temperature, the coverslips were washed twice with PBS (pH 7.4) to remove unattached cells, and the media was replaced with PBS for the duration of the imaging. To monitor the change in bacterial morphology, bacterial cells were treated with a peptoid (or with control AMPs) in PBS containing FM4‐64 (10 µg mL^−1) or propidium iodide (10 µg mL^−1). To analyze 3D refractive index (RI) tomograms, individual bacteria were captured using ODT equipped with a digital micromirror device (Tomocube). In more detail, the light scattered by the bacterial cells was collected by an objective lens (NA = 1.2, water dipping, UPLSAPO 60XW, Olympus) and recorded by a digital image sensor (CMOS camera, FL3‐U313Y3M‐C, FLIR Systems). Using a field retrieval algorithm, the amplitude and phase images were retrieved from the obtained multiple holograms, and then the 3D RI distribution was determined.
The analysis tool in the TomoStudio software (Tomocube) was used to measure specific values, including the refractive index (RI) and the cell volume of bacteria. These values were determined from RI increments (RII) of 0.190 fL pg^−1, which is known as a representative value and was assumed to be the same for most proteins.^[ [46] ^]

E. coli ATCC 25922 [3] = assay: Thioflavin S fluorescence imaging of intracellular aggregation; type: cell-based; conditions: 29 and peptoid 1 at 4 × MIC, control peptides 2 × MIC
E. coli ATCC 25922 [4] = type: cell-based, Escherichia coli; conditions: mean of triplicate
Outline: (§1)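 Peptoid MICs were determined by broth dilution, scoring the lowest concentration that kept wells clear by eye. Compounds ran at six concentrations in two-fold steps up to 25 µM against ≈2–5 × 10^5 CFU mL^−1 in BSA/acetic acid-supplemented cation-adjusted Mueller Hinton broth.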

S. aureus ATCC 25923 = type: cell-based, Staphylococcus aureus; conditions: mean of triplicate
Outline: as §1

E. faecalis KCTC 3511 = type: cell-based; conditions: KCTC 3511
S. typhimurium SL 1344 = type: cell-based; conditions: SL 1344
P. aeruginosa MDR-198 = type: cell-based
E. coli ESBL 63103 = type: cell-based
K. pneumonia ESBL 61962 = type: cell-based
S. aureus MRSA C623 = type: cell-based
E. coli ATCC 25922 [5] = assay: NPN uptake assay (outer membrane); type: cell-based; conditions: E. coli ATCC 25922, 5 mM HEPES pH 7.2, 10 µM NPN, fluorescence
Experimental: 14. In vitro biological assays […]
The ability of peptoids to increase the permeability of the outer membrane of Gram-negative bacteria was determined by measuring the incorporation of the NPN fluorescent dye into the outer membrane of E. coli ATCC 25922. Bacterial cells were suspended to a final concentration of OD600 = 0.05 in 5 mM HEPES buffer, pH 7.2, containing 5 mM KCN. Then […]
200 μL NPN dye was added to wells of a 96 well plate to produce a final concentration of 10 μM, and the background fluorescence was recorded (λex = 350 nm, λem = 420 nm). Aliquots of peptoids were added to the well, and fluorescence was recorded as a function of time until there was no further increase in fluorescence. Increases of the permeability of the outer membrane after the addition of peptoids was reflected by increased fluorescence values as a result of NPN incorporation into the membrane. […]

E. coli ML-35 cells = assay: ONPG hydrolysis assay (inner membrane); type: cell-based; conditions: 1.5 mM ONPG, 10 mM sodium phosphate pH 7.4, absorbance 405 nm
Experimental: The permeability of the inner membrane was determined using E. coli ML-35 cells […]
The intact bacterial inner membrane is non-permeable to o-nitrophenyl-β-D-galactopyranoside (OPNG), a chromogenic substrate of the β-galactosidase.
Following damage to the inner membrane, OPNG enters the cells and is metabolized by β-galactosidase creating a chromogenic […]. E. coli cells were washed in 10 mM sodium phosphate (pH 7.4) containing 100 mM NaCl and resuspended in the same buffer at a final concentration of OD600 = 0.5 containing 1.5 mM ONPG. The hydrolysis of ONPG and generation of o-nitrophenol over time were monitored as absorbance change at 405 nm following the addition of peptoids. […]

[6] = remark linked to increased retention time of N4hb peptoids
human cells and animals = conditions: cited from earlier work
Experimental: The antimicrobial, hemolytic, and cytotoxic activities of counter-ion-exchanged peptoids were evaluated (Table S3).

[7] = Table S2, broth dilution, MHB2, 37 °C 24 h, max 25 µM

| Compound | HPLC elution (%ACN) [1] [%ACN] | H max (100 µM) (rat erythrocytes) [%] | Hmax (100 µM) (rat erythrocytes) [%] | HC10 (rat erythrocytes; pH 7.4) [µM] | HC50 (rat erythrocytes; pH 7.4) [µM] | HPLC elution [1] [% MeCN] | aqueous solubility [6] | also measured |
| --- | --- | --- | --- | --- | --- | --- | --- | --- |
| CC[C@H](C)[C@H](NC(=O)CN)C(=O)NCC(=O)N[C@@H](C)C(=O)N[C@H](C(=O)N[C@@H](CC(C)C)C(=O)N[C@@H](CCCCN)C(=O)N[C@H](C(=O)N[C@@H](CC(C)C)C(=O)N[C@H](C(=O)N[C@H](C(=O)NCC(=O)N[C@@H](CC(C)C)C(=O)N1CCC[C@H]1C(=O)N[C@@H](C)C(=O)N[C@@H](CC(C)C)C(=O)N[C@H](C(=O)N[C@@H](CO)C(=O)N[C@@H](Cc1c[nH]c2ccccc12)C(=O)N[C@H](C(=O)N[C@@H](CCCCN)C(=O)N[C@@H](CCCNC(=N)N)C(=O)N[C@@H](CCCCN)C(=O)N[C@@H](CCCNC(=N)N)C(=O)N[C@@H](CCC(N)=O)C(=O)N[C@@H](CCC(N)=O)C(N)=O)[C@@H](C)CC)[C@@H](C)CC)[C@@H](C)O)[C@@H](C)O)C(C)C)C(C)C [Melittin, reference compound] | 55.4 | 105.7 ± 17.6 |  |  |  |  |  | change of cell volume (E. coli ATCC 25922 [2]): notable reduction in cell volume; change of mean RI value versus control cells (E. coli ATCC 25922 [2]): significantly increased mean RI values; Th S fluorescence (intracellular biomass aggregation) (E. coli ATCC 25922 [3]): enhanced Th S fluorescence |
| C[C@@H](c1ccccc1)N(CC(N)=O)C(=O)CN(CCCCN)C(=O)CN(CCCCN)C(=O)CN(C(=O)CN(C(=O)CN(CCCCN)C(=O)CN(C(=O)CN(C(=O)CN(CCCCN)C(=O)CN(CCc1c[nH]c2ccccc12)C(=O)CN(CCc1c[nH]c2ccccc12)C(=O)CNCCCCN)[C@@H](C)c1ccccc1)[C@@H](C)c1ccccc1)[C@@H](C)c1ccccc1)[C@@H](C)c1ccccc1 [peptoid 32] | 48.4 | 15.9 ± 1.5 | 4.2±1.0 | 77.7 | > 100 |  |  | MIC E. coli ATCC25922 (E. coli ATCC 25922 [4]; [7]): 6.3 µM (≈ 11.7 µg/mL); MIC E. coli ATCC25922 (E. coli ATCC 25922 [4]; Table S3, counter-ion exchange series (TFA, HCl, AcOH salts)): 6.3 µM; MIC S. aureus ATCC25923 (S. aureus ATCC 25923; [7]): 3.1 µM (≈ 5.78 µg/mL); MIC S. aureus ATCC25923 (S. aureus ATCC 25923; Table S3, counter-ion exchange series): 3.1 µM (≈ 5.78 µg/mL); HC10 (rat erythrocytes; red cells of rat): > 100 µM; MIC E. faecalis KCTC 3511 (E. faecalis KCTC 3511): 6.3 µM (≈ 11.7 µg/mL); MIC S. typhimurium SL 1344 (S. typhimurium SL 1344): 6.3 µM (≈ 11.7 µg/mL); MIC P. aeruginosa MDR-198 (P. aeruginosa MDR-198): 6.3 to 12.5 µM; MIC E. coli ESBL 63103 (E. coli ESBL 63103): 12.5 to 25 µM; MIC K. pneumonia ESBL 61962 (K. pneumonia ESBL 61962): 12.5 to 25 µM; MIC S. aureus MRSA C623 (S. aureus MRSA C623): 3.1 to 6.3 µM; outer membrane disruption (NPN uptake) (E. coli ATCC 25922 [5]): somewhat lower; inner membrane disruption (ONPG hydrolysis) (E. coli ML-35 cells): lower than that seen with more hydrophobic peptoids |
| C[C@@H](c1ccccc1)N(CC(N)=O)C(=O)CN(CCCCN)C(=O)CN(C(=O)CN(C(=O)CN(CCCCN)C(=O)CN(C(=O)CN(CCCCN)C(=O)CN(CCCCN)C(=O)CN(C(=O)CN(C(=O)CN(CCCCN)C(=O)CN(C(=O)CNCCc1c[nH]c2ccccc12)[C@@H](C)c1ccccc1)[C@@H](C)c1ccccc1)[C@@H](C)c1ccccc1)[C@@H](C)c1ccccc1)[C@@H](C)c1ccccc1)[C@@H](C)c1ccccc1 [peptoid 63] |  |  | 12.7±0.9 | 85.0 | > 100 | 49.9 | poor aqueous |  |
| C[C@@H](c1ccccc1)N(CC(N)=O)C(=O)CN(CCCCN)C(=O)CN(C(=O)CN(C(=O)CN(CCCCN)C(=O)CN(C(=O)CN(C(=O)CN(CCCCN)C(=O)CN(C(=O)CN(CCCCN)C(=O)CN(CCCCN)C(=O)CN(C(=O)CNCCc1c[nH]c2ccccc12)[C@@H](C)c1ccccc1)[C@@H](C)c1ccccc1)[C@@H](C)c1ccccc1)[C@@H](C)c1ccccc1)[C@@H](C)c1ccccc1)[C@@H](C)c1ccccc1 [peptoid 64] |  |  | 18.9±2.9 | 70.7 | > 100 | 50.5 | poor aqueous |  |
| KKIRVRLSA [M33-TFA] |  |  |  |  |  |  |  | toxicity of M33-TFA above that of M33-AcOH (human cells and animals): 5-30% |
